These results are taken from ChEMBL document CHEMBL1153415, “Evaluation of antioxidant properties of monoaromatic derivatives of pulvinic acids” (J Med Chem, 2009).

The structures appear in SMILES notation. pEC50: −log10 of the molar value. Calls of active or inactive are those of the source. The calls are words filed in the database; no cut-off is given here.

The nature of data set [1]: Antioxidant activity against superoxide radical assessed as trolox equivalents by luminol-enhanced chemiluminescence. The format is functional.
Data set [2] can be described thus: Antioxidant activity against UV/H2O2-induced thymidine degradation at 100 uM by thymidine protection assay. Format: functional.
Data set [3] in a line: Antioxidant activity against […]/EDTA/H2O2-induced pEGFPLuc plasmid DNA degradation assessed as remaining supercoiled DNA form at 125 uM by gel-electrophoresis. Format: functional.
Data set [4] is described as follows: Antioxidant activity against Fe/EDTA/H2O2-induced thymidine degradation at 100 uM by thymidine protection assay. Format: functional.
Data set [5] has as its system CHO. The data set is described as follows: Cytotoxicity against CHO cells at 10 to 100 uM by MTT assay relative to control. The following applies: chinese hamster. The format is cell-based, Cricetulus griseus.
Data set [6] is described as follows: Antioxidant activity against Fe/EDTA/H2O2-induced thymidine degradation by thymidine protection assay. The format is functional.
Data set [7] is described as follows: Antioxidant activity against UV/H2O2-induced thymidine degradation by thymidine protection assay. The format is functional.

For `COC(=O)/C(=C1/OC(=O)C(C)=C1O)c1ccc(Br)cc1`, the Activity in data set [1] is 87 µg.
As to `COC(=O)/C(C)=C1/OC(=O)C(c2ccc(C(C)C)cc2)=C1O`, the outcome in data set [2], in data set [3] and in data set [4] was Active.
As to `COc1ccc(C2=C(O)/C(=C(/C)C(=O)N3CCOCC3)OC2=O)cc1`, the Activity in data set [2] was 30%; in data set [1] it was 79 µg; in data set [4], 37%; in data set [5] it was “Non-toxic”. Also, the result in data set [3] was Active.
For the compound `COc1ccc(C2=C(O)/C(=C(/C)C(C)(C)O)OC2=O)cc1`, the Activity in data set [3] was 40%; in data set [5], “Non-toxic”. Further, the pEC50 was 3.22 in data set [6] and 3.93 in data set [7].
Take `COC(=O)/C(=C1/OC(O)=C(c2ccc(OC)cc2)C1=O)c1ccc(OC)cc1`: in data set [3], the outcome was Active. Moreover, the Activity was 54 µg in data set [1] and “Non-toxic” in data set [5]. Besides, the negative-log EC50 (pEC50) in data set [6] is 3.96; in data set [7] it was 4.05.
For the compound `COc1ccc(C2=C(O)/C(=C(/C)C(=O)OC(C)C)OC2=O)cc1`, the Activity in data set [2] amounted to 27%; in data set [1], 105 µg; in data set [4], 37%. Further, in data set [3], the outcome was Active.
Take `COC(=O)/C(C)=C1/OC(=O)C(c2ccc(F)cc2)=C1O`: the result in data set [2], in data set [3] and in data set [4] was Active.
In the case of `CCCCNC(=O)/C(C)=C1/OC(=O)C(c2ccc(OC)cc2)=C1O`, the Activity is 30% in data set [2]; 40% in data set [3]; 86 µg in data set [1]; 37% in data set [4]; “Non-toxic” in data set [5]. Besides, the values for the pEC50 in data set [6] and in data set [7] were 3.65 and 4.04, respectively.
As for `COC(=O)/C(C)=C1/OC(=O)C(c2ccccc2)=C1O`, the outcome in data set [3] was Active. The Activity entry in data set [5] was “Non-toxic”.
As to `COc1ccc(C2=C(O)/C(=C(/C)C(=O)NCCCN)OC2=O)cc1`, the Activity is 30% in data set [2], 40% in data set [3], 81 µg in data set [1] and 37% in data set [4].
Take `COC(=O)/C(=C1/OC(=O)C(C)=C1O)c1ccccc1`: the negative-log EC50 (pEC50) was 3.07 in data set [6] and 3.66 in data set [7]. Moreover, the Activity result in data set [5] was “Non-toxic”.
`COc1ccc(C2=C(O)/C(=C(/C)C(=O)N(C)OC)OC2=O)cc1`: the figures for the Activity in data set [2] and in data set [4] were 30% and 37%, respectively. Moreover, the result in data set [3] was Active.
Consider `COC(=O)/C(C)=C1/OC(=O)C(c2ccc(OC)cc2)=C1O`, for which the figures for the Activity in data set [3] and in data set [1] were 40% and 141 µg, respectively. Besides, the negative logarithm of the EC50 (pEC50) is 3.71 in data set [6] and 3.89 in data set [7].
Turning to `COC(=O)/C(C)=C1/OC(=O)C(c2ccc(Br)cc2)=C1O`, the outcome in data set [2], in data set [3] and in data set [4] was Active. Further, the Activity in data set [1] is 113 µg; in data set [5] it was “Non-toxic”.
`COC(=O)/C(=C1/OC(=O)C(C)=C1O)c1ccc(OC)cc1`: the pEC50 in data set [6] is 3.01; in data set [7] it was 3.76.
For `COC(=O)/C(C)=C1/OC(=O)C(/C=C/c2ccccc2)=C1O`, the result in data set [2], in data set [3] and in data set [4] was Active.
Turning to `COc1ccc(/C(C(=O)OC(C)C)=C2\OC(=O)C(C)=C2O)cc1`, the Activity in data set [1] is 77 µg; in data set [5], “Non-toxic”.
As for `COC(=O)/C(=C1/OC(=O)C(c2ccccc2)=C1O)c1ccccc1`, the outcome in data set [2] and in data set [4] was Active.
